Here are results for one compound from patent US6624188B1, “Method of treatment with compounds having retinoid-like activity and reduced skin toxicity and lacking teratogenic effects” (Allergan, Inc., priority 1992, dated 2003).

Where two headings read alike, the source gives them in different places.

For one data set, the system named is human sebocyte cultures. The experiment in a line: human sebocyte culture 3H-thymidine incorporation (DNA synthesis, anti-proliferative effect). The note with it: human sebocytes, 8 days treatment, FIG. 2. The data set is classed as cell-based. From the text:
The retinoid like activity of the compounds used in accordance with the method of treatment of the present invention and of the novel compounds of the invention can be confirmed by several assay procedures. An assay involving human sebocyte cultures measures the inhibition of ^3H-thymidine into cells, and thus measures inhibition of DNA synthesis and thus an anti-proliferative effect on sebocyte (i.e. a sebostatic effect). This assay is also considered a specific assay for effectiveness of a compound as a potential anti-acne drug. The test is conducted as follows.
Face-lift or forehead reduction skins from cosmetic surgeries were used as sources of human sebaceous gland cells (sebocytes).
Isolated sebocytes were plated in type 1 collagen coated-dishes in DMEM/F12 (1:1) medium supplemented with 8% fetal bovine serum, 2% human serum, 10 ng/ml epidermal growth factor, 1 nM cholera toxin, 1 μM hydrocortisone, and penicillin/streptomycin/amphotericin B. Secondary cultures were prepared by plating Dispase dissociated cells in collagen coated 24-well plates.
Sub-confluent secondary cultures were treated with the test compounds or ethanol vehicle every 2-3 days for 8 days in the above medium from which the total serum concentration was reduced to 2% and hydrocortisone was not included. During the last 6 hours of treatment, the cultures were labeled with 2 μCi/ml ^3H-thymidine. DNA from the cells were extracted by thichoroacetic acid and perchloric acid, and assayed for radioactivity by scintillation counting and for content of DNA by the diphenylamine calorimetric method. The results were expressed as CPM/μg DNA, or as per cent of vehicle control which incorporated about 1,000-1,500 cpm/μg DNA.
On the technique in general: Incorporation of labelled thymidine or its analogues reports DNA synthesis.

Another data set concerns female hairless mice. The class given is in vivo. The note with it: animals died from a group of 5. Here is the method:
Specifically, tests to determine skin toxicity were performed on certain examplary compounds in accordance with the present invention, and on certain analogous compounds which lack the R3 substituent in accordance with Formula 1, 2 or 3. A “Two Week Acute Skin Toxicity Study of Multiple Topical Applications in Female Hairless Mice” is conducted as follows: a daily dose (expressed in nanomoles) of the “test compound” is applied to the skin on the back of hairless mice (usually a test group of 5 mice for a given compound). The daily dose of the test compound is applied for 5 consecutive days, followed by two days when the test compound is not administered, and is thereafter administered again for 4 more consecutive days. On the 14th day the test animals if still alive, are sacrificed to perform certain studies and tests. In the meanwhile certain tests and observations are made on a daily basis with respect to body weight and skin condition. Skin condition is graded as “flaking/scaling” and “abrasion” on a scale of 0 to +5 where the various numbers correspond to the following observations.
Results of these tests are summarized in Table 3, where daily dose is expressed in nanomoles, weight loss of the test animals is in percentages at the end of the 14 day test period, or at the time the test animal expired, and mortality is expressed with the number of animals which died from a group of 5.

With `C/C(=C\c1ccc(C(=O)O)cc1)c1ccc2c(c1)C(C)(C)CCC2(C)C` [AGN 191183, reference compound], the “inhibition of 3H-thymidine incorporation (effectiveness in sebocyte assay)” value with human sebocyte cultures was “not effective”. Further, the Death/Total is on record as 0/5 in the data set with female hairless mice (daily dose 7.5 nanomoles topical), 0/5 with female hairless mice (daily dose 25 nanomoles topical), 5/5 in the data set with female hairless mice (daily dose 75 nanomoles topical) and 5/5 with female hairless mice (daily dose 80 nanomoles topical).
